Legend:
oval-leafed pondweed [1] = assay: Test Example 1: herbicidal activity, application before weed generation under submerged conditions (Table 16, symbol C); assay type: in vivo, oval-leafed pondweed (Monochoria vaginalis); conditions: amount of applied herbicide 320 g/ha
In short: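 Emulsion formulation, water-diluted to set dose, was put onto the flooded surface (4 cm depth, alluvial soil) the same day weeds were sown and 2.5-leaf rice transplanted. After 3 weeks at 25-30 °C under glass, each species was rated 0 (≤5% kill) to 5 (≥90% kill).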

late watergrass = assay: Test Example 2: herbicidal activity, application during weed generation under submerged conditions (Table 17, symbol A); assay type: in vivo, late watergrass (Echinochloa oryzicola); conditions: AAH 320 g/ha; application during weed generation, submerged conditions
In short: (§1)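 In this pot test, flooded alluvial soil (water depth 4 cm) holds all three species sown as a mixture. Once seedlings have one to two leaves, the compound's emulsion, thinned with water to the intended dose, is poured on the water; grading follows after three weeks on the earlier criteria.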

Japanese bulrush = assay: Test Example 2: herbicidal activity, application during weed generation under submerged conditions (Table 17, symbol B); assay type: in vivo, Japanese bulrush (Schoenoplectus juncoides); conditions: AAH 320 g/ha; application during weed generation, submerged conditions
In short: as §1

oval-leafed pondweed [2] = assay: Test Example 2: herbicidal activity, application during weed generation under submerged conditions (Table 17, symbol C); assay type: in vivo, oval-leafed pondweed (Monochoria vaginalis); conditions: AAH 320 g/ha; application during weed generation, submerged conditions
In short: as §1

Chinese sprangletop = assay: Test Example 3: herbicidal effect by foliage application, Wagner pot (Table 18, symbol D); assay type: in vivo, chinese sprangletop (Leptochloa chinensis); conditions: amount of applied herbicide 320 g/ha
In short: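 Plants were sown in alluvial soil held under 0.1–0.5 cm standing water and grown 14 days in a greenhouse at 25–30 °C. An emulsifiable formulation, water-diluted to the set dose, was then sprayed onto the foliage, and effects were scored three weeks later using previously defined criteria.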

wild oat = assay: Test Example 4: herbicidal effect by soil treatment (Table 19, symbol I); assay type: in vivo, wild oat (Avena fatua); conditions: amount of applied herbicide 320 g/ha
In short: (§2)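 Applied as a water-diluted emulsion, the compound was sprayed onto soil covering newly sown seeds. Evaluation came three weeks after application, in a greenhouse held at 25° C. to 30° C.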

blackgrass = assay: Test Example 4: herbicidal effect by soil treatment (Table 19, symbol J); assay type: in vivo, blackgrass (Alopecurus myosuroides); conditions: amount of applied herbicide 320 g/ha
In short: as §2

redroot pigweed = assay: Test Example 4: herbicidal effect by soil treatment (Table 19, symbol N); assay type: in vivo, redroot pigweed (Amaranthus retroflexus); conditions: amount of applied herbicide 320 g/ha
In short: as §2

lambsquarters [3] = assay: Test Example 4: herbicidal effect by soil treatment (Table 19, symbol O); assay type: in vivo, lambsquarters (Chenopodium album); conditions: amount of applied herbicide 320 g/ha
In short: as §2

chickweed [4] = assay: Test Example 4: herbicidal effect by soil treatment (Table 19, symbol P); assay type: in vivo, common chickweed (Stellaria media); conditions: amount of applied herbicide 320 g/ha
In short: as §2

Italian ryegrass = assay: Test Example 5: herbicidal effect by foliage application, plastic box (Table 20, symbol K); assay type: in vivo, Italian ryegrass (Lolium multiflorum); conditions: foliage application; for K: Italian ryegrass, herbicidal effect (criteria 0-5): AAH 320 g/ha, evaluated three weeks after application; for K: Italian ryegrass, herbicidal effect grade: 320 g/ha, three weeks after application
In short: (§3)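 Sow seeds spot-wise in sterilized diluvial soil; cover with ~1.5 cm soil. Grow 14 days in greenhouse, 25° C. to 30° C. Spray foliage with emulsion diluted to predetermined amount. Rate effect after 3 weeks.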

lambsquarters [5] = assay: Test Example 5: herbicidal effect by foliage application, plastic box (Table 20, symbol O); assay type: in vivo, lambsquarters (Chenopodium album); conditions: foliage application; for O: lambsquarters, herbicidal effect (criteria 0-5): AAH 320 g/ha, evaluated three weeks after application; for O: lambsquarters, herbicidal effect grade: 320 g/ha, three weeks after application
In short: as §3

chickweed [6] = assay: Test Example 5: herbicidal effect by foliage application, plastic box (Table 20, symbol P); assay type: in vivo, common chickweed (Stellaria media); conditions: foliage application; for P: chickweed, herbicidal effect (criteria 0-5): AAH 320 g/ha, evaluated three weeks after application; for P: chickweed, herbicidal effect grade: 320 g/ha, three weeks after application
In short: as §3

persian speedwell = assay: Test Example 5: herbicidal effect by foliage application, plastic box (Table 20, symbol R); assay type: in vivo, Persian speedwell (Veronica persica); conditions: foliage application; for R: persian speedwell, herbicidal effect (criteria 0-5): AAH 320 g/ha, evaluated three weeks after application; for R: persian speedwell, herbicidal effect grade: 320 g/ha, three weeks after application
In short: as §3

barnyard grass = assay: Test Example 4: herbicidal effect by soil treatment (Table 19, symbol H); assay type: in vivo, barnyard grass (Echinochloa crus-galli); conditions: amount of applied herbicide 320 g/ha
In short: as §2

## Cc1nn(C)c(=O)c(-c2c(-c3cnccc3C(F)(F)F)sc3ccc(F)cc23)c1O [2-387]
oval-leafed pondweed [1]
  Herbicidal effect, C: oval-leafed pondweed: 0 (Herbicidal rate of 5% or less (almost no effect))
Late watergrass
  herbicidal effect rating, A: late watergrass: 4 (Herbicidal rate of 70% or more and less than 90%)
Japanese bulrush
  herbicidal effect rating, B: Japanese bulrush: 4 (Herbicidal rate of 70% or more and less than 90%)
oval-leafed pondweed [2]
  herbicidal effect rating, C: oval-leafed pondweed: 4 (Herbicidal rate of 70% or more and less than 90%)
Chinese sprangletop
  herbicidal effect on D: Chinese sprangletop: 5 (Herbicidal rate of 90% or more (almost completely withered))
Wild oat
  herbicidal effect, I: wild oat: 1 (Herbicidal rate of 5% or more and less than 20%)
blackgrass
  herbicidal effect, J: blackgrass: 0 (Herbicidal rate of 5% or less (almost no effect))
Redroot pigweed
  herbicidal effect, N: redroot pigweed: 5 (Herbicidal rate of 90% or more (almost completely withered))
Lambsquarters [3]
  herbicidal effect, O: lambsquarters: 4 (Herbicidal rate of 70% or more and less than 90%)
Chickweed [4]
  herbicidal effect, P: chickweed: 4 (Herbicidal rate of 70% or more and less than 90%)
Italian ryegrass
  K: Italian ryegrass, herbicidal effect (criteria 0-5): 4 (Herbicidal rate of 70% or more and less than 90%)
Lambsquarters [5]
  O: lambsquarters, herbicidal effect (criteria 0-5): 5 (Herbicidal rate of 90% or more (almost completely withered))
Chickweed [6]
  P: chickweed, herbicidal effect (criteria 0-5): 5 (Herbicidal rate of 90% or more (almost completely withered))
Persian speedwell
  R: persian speedwell, herbicidal effect (criteria 0-5): 5 (Herbicidal rate of 90% or more (almost completely withered))

## CCCC(=O)Oc1c(C)nn(C)c(=O)c1-c1c(-c2ccc(Cl)s2)sc2ccc(F)cc12 [2-391]
oval-leafed pondweed [1]
  Herbicidal effect, C: oval-leafed pondweed: 5 (Herbicidal rate of 90% or more (almost completely withered))
Late watergrass
  herbicidal effect rating, A: late watergrass: 3 (Herbicidal rate of 40% or more and less than 70%)
Japanese bulrush
  herbicidal effect rating, B: Japanese bulrush: 4 (Herbicidal rate of 70% or more and less than 90%)
oval-leafed pondweed [2]
  herbicidal effect rating, C: oval-leafed pondweed: 5 (Herbicidal rate of 90% or more (almost completely withered))
Chinese sprangletop
  herbicidal effect on D: Chinese sprangletop: 4 (Herbicidal rate of 70% or more and less than 90%)
Barnyard grass
  herbicidal effect, H: barnyard grass: 4 (Herbicidal rate of 70% or more and less than 90%)
Wild oat
  herbicidal effect, I: wild oat: 0 (Herbicidal rate of 5% or less (almost no effect))
blackgrass
  herbicidal effect, J: blackgrass: 2 (Herbicidal rate of 20% or more and less than 40%)
Redroot pigweed
  herbicidal effect, N: redroot pigweed: 5 (Herbicidal rate of 90% or more (almost completely withered))
Lambsquarters [3]
  herbicidal effect, O: lambsquarters: 4 (Herbicidal rate of 70% or more and less than 90%)
Chickweed [4]
  herbicidal effect, P: chickweed: 4 (Herbicidal rate of 70% or more and less than 90%)
Italian ryegrass
  K: Italian ryegrass, herbicidal effect (criteria 0-5): 5 (Herbicidal rate of 90% or more (almost completely withered))
Lambsquarters [5]
  O: lambsquarters, herbicidal effect (criteria 0-5): 4 (Herbicidal rate of 70% or more and less than 90%)
Chickweed [6]
  P: chickweed, herbicidal effect (criteria 0-5): 5 (Herbicidal rate of 90% or more (almost completely withered))
Persian speedwell
  R: persian speedwell, herbicidal effect (criteria 0-5): 5 (Herbicidal rate of 90% or more (almost completely withered))

## Cc1nn(C)c(=O)c(-c2c(-c3ccc4c(c3)OC(F)(F)O4)sc3ccc(F)cc23)c1O [2-392]
oval-leafed pondweed [1]
  Herbicidal effect, C: oval-leafed pondweed: 0 (Herbicidal rate of 5% or less (almost no effect))
Late watergrass
  herbicidal effect rating, A: late watergrass: 2 (Herbicidal rate of 20% or more and less than 40%)
Japanese bulrush
  herbicidal effect rating, B: Japanese bulrush: 0 (Herbicidal rate of 5% or less (almost no effect))
oval-leafed pondweed [2]
  herbicidal effect rating, C: oval-leafed pondweed: 0 (Herbicidal rate of 5% or less (almost no effect))
Chinese sprangletop
  herbicidal effect on D: Chinese sprangletop: 4 (Herbicidal rate of 70% or more and less than 90%)
Barnyard grass
  herbicidal effect, H: barnyard grass: 2 (Herbicidal rate of 20% or more and less than 40%)
Wild oat
  herbicidal effect, I: wild oat: 0 (Herbicidal rate of 5% or less (almost no effect))
blackgrass
  herbicidal effect, J: blackgrass: 0 (Herbicidal rate of 5% or less (almost no effect))
Redroot pigweed
  herbicidal effect, N: redroot pigweed: 3 (Herbicidal rate of 40% or more and less than 70%)
Lambsquarters [3]
  herbicidal effect, O: lambsquarters: 3 (Herbicidal rate of 40% or more and less than 70%)
Chickweed [4]
  herbicidal effect, P: chickweed: 5 (Herbicidal rate of 90% or more (almost completely withered))
Italian ryegrass
  K: Italian ryegrass, herbicidal effect (criteria 0-5): 5 (Herbicidal rate of 90% or more (almost completely withered))
Lambsquarters [5]
  O: lambsquarters, herbicidal effect (criteria 0-5): 5 (Herbicidal rate of 90% or more (almost completely withered))
Chickweed [6]
  P: chickweed, herbicidal effect (criteria 0-5): 5 (Herbicidal rate of 90% or more (almost completely withered))
Persian speedwell
  R: persian speedwell, herbicidal effect (criteria 0-5): 5 (Herbicidal rate of 90% or more (almost completely withered))

## CCCC(=O)Oc1c(CC)nn(C)c(=O)c1-c1c(-c2ccc(C(F)(F)F)cc2)sc2ccc(F)cc12 [2-411]
oval-leafed pondweed [1]
  Herbicidal effect, C: oval-leafed pondweed: 0 (Herbicidal rate of 5% or less (almost no effect))
Late watergrass
  herbicidal effect rating, A: late watergrass: 3 (Herbicidal rate of 40% or more and less than 70%)
Japanese bulrush
  herbicidal effect rating, B: Japanese bulrush: 0 (Herbicidal rate of 5% or less (almost no effect))
oval-leafed pondweed [2]
  herbicidal effect rating, C: oval-leafed pondweed: 0 (Herbicidal rate of 5% or less (almost no effect))
Chinese sprangletop
  herbicidal effect on D: Chinese sprangletop: 3 (Herbicidal rate of 40% or more and less than 70%)
Barnyard grass
  herbicidal effect, H: barnyard grass: 0 (Herbicidal rate of 5% or less (almost no effect))
Wild oat
  herbicidal effect, I: wild oat: 0 (Herbicidal rate of 5% or less (almost no effect))
blackgrass
  herbicidal effect, J: blackgrass: 0 (Herbicidal rate of 5% or less (almost no effect))
Redroot pigweed
  herbicidal effect, N: redroot pigweed: 0 (Herbicidal rate of 5% or less (almost no effect))
Lambsquarters [3]
  herbicidal effect, O: lambsquarters: 0 (Herbicidal rate of 5% or less (almost no effect))
Chickweed [4]
  herbicidal effect, P: chickweed: 1 (Herbicidal rate of 5% or more and less than 20%)
Italian ryegrass
  K: Italian ryegrass, herbicidal effect grade: 0 (Herbicidal rate of 5% or less (almost no effect))
Lambsquarters [5]
  O: lambsquarters, herbicidal effect grade: 4 (Herbicidal rate of 70% or more and less than 90%)
Chickweed [6]
  P: chickweed, herbicidal effect grade: 5 (Herbicidal rate of 90% or more (almost completely withered))
Persian speedwell
  R: persian speedwell, herbicidal effect grade: 5 (Herbicidal rate of 90% or more (almost completely withered))

## CCOc1ccccc1-c1sc2ccc(F)cc2c1-c1c(O)c(CC)nn(C)c1=O [2-416]
oval-leafed pondweed [1]
  Herbicidal effect, C: oval-leafed pondweed: 2 (Herbicidal rate of 20% or more and less than 40%)
Late watergrass
  herbicidal effect rating, A: late watergrass: 2 (Herbicidal rate of 20% or more and less than 40%)
Japanese bulrush
  herbicidal effect rating, B: Japanese bulrush: 3 (Herbicidal rate of 40% or more and less than 70%)
oval-leafed pondweed [2]
  herbicidal effect rating, C: oval-leafed pondweed: 2 (Herbicidal rate of 20% or more and less than 40%)
Chinese sprangletop
  herbicidal effect on D: Chinese sprangletop: 3 (Herbicidal rate of 40% or more and less than 70%)
Barnyard grass
  herbicidal effect, H: barnyard grass: 0 (Herbicidal rate of 5% or less (almost no effect))
Wild oat
  herbicidal effect, I: wild oat: 0 (Herbicidal rate of 5% or less (almost no effect))
blackgrass
  herbicidal effect, J: blackgrass: 0 (Herbicidal rate of 5% or less (almost no effect))
Redroot pigweed
  herbicidal effect, N: redroot pigweed: 0 (Herbicidal rate of 5% or less (almost no effect))
Lambsquarters [3]
  herbicidal effect, O: lambsquarters: 0 (Herbicidal rate of 5% or less (almost no effect))
Chickweed [4]
  herbicidal effect, P: chickweed: 2 (Herbicidal rate of 20% or more and less than 40%)
Italian ryegrass
  K: Italian ryegrass, herbicidal effect grade: 0 (Herbicidal rate of 5% or less (almost no effect))
Lambsquarters [5]
  O: lambsquarters, herbicidal effect grade: 2 (Herbicidal rate of 20% or more and less than 40%)
Chickweed [6]
  P: chickweed, herbicidal effect grade: 5 (Herbicidal rate of 90% or more (almost completely withered))
Persian speedwell
  R: persian speedwell, herbicidal effect grade: 5 (Herbicidal rate of 90% or more (almost completely withered))

— patent publication US20230085307A1, “PYRIDAZINONE COMPOUND AND HERBICIDE” (NISSAN CHEMICAL CORPORATION, priority 2019, published 2023)
